One experiment concerns E0771-SULT-OVA cells. Put plainly: In vivo tumor growth of E0771-SULT-OVA cells with OTII T cell transfer. More on the design: species or system mouse. The conditions noted are these: activated OTII T cells i.v. day 9, cholenoic acid oral days 12, 13 and 14. The protocol:
In T cell transfer experiment, activated OTII CD4^+ T cells (2×10^6) and OTI CD8^+ T cells (5×10^5) were intravenously injected into tumor-bearing mice (see experimental results (4)).
Cholenoic acid was suspended in 0.5% (w/v) methylcellulose 400 solution (FUJIFILM Wako Pure Chemical Corporation) at a proportion of 50 mg/ml, and a 200-μl portion (10 mg) of the suspension was orally administered to mice (see experimental results (6)). To examine the effect on the tumor infiltration of OTII cells or OTI T cells, 5 mg of cholenoic acid was orally administered three times at intervals of 6 hours in 2 days before the assay.
CD4^+ T cells or CD8^+ T cells were magnetically selected from the spleen and peripheral lymph nodes of OTII and OTI TCR transgenic mice with Dynabeads mouse CD4 (Invitrogen), and then treated with DETACHaBEAD™ mouse CD4 (Invitrogen) or separated with a CD8a^+ T Cell Isolation Kit (Miltenyi Biotec). […]
(§1) The growth of tumors was monitored by measuring the vertical diameters of each tumor with a caliper twice a week and calculating the tumor volumes from the following expression.

The target of experiment [1] is T1, recombinant human SULT2B1b protein (Homo sapiens, UniProt O00204).
T1 sequence (O00204 1-365): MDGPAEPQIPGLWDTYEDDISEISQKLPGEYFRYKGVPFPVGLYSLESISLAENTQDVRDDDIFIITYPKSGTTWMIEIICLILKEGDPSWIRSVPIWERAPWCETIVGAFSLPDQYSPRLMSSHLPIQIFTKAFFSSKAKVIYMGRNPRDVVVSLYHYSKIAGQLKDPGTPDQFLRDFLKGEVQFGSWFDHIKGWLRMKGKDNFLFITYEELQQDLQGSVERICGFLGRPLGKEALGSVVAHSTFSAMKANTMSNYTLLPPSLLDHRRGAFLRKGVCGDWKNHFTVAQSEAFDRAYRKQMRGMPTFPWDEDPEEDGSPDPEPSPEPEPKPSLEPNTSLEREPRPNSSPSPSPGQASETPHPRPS
The experiment is described as follows: SULT assay (in vitro SULT2B1b enzymatic activity measurement). It counts as biochemical. On the procedure:
For screening for a SULT2B1b inhibitor, enzymatic activity measurement for SULT2B1b was carried out by a method described in a previous report (NPL 2) with slight modifications.
The reaction solution (50 μl) was composed of 1 to 5 μg of recombinant human SULT2B1b protein, 10 μM [^3H]cholesterol (approximately 4,000 dpm/pmol), 10 mM Tris-HCl (pH 7.5, containing 5 mM MgCl2) containing 0.1 mM 3′-phosphoadenosine 5′-phosphosulfate (PAPS), 0.2 mM 2-hydroxypropyl-β-cyclodextrin, and 5% (v/v) ethanol. Recombinant human SULT2B1b protein was pre-incubated with 1 μl of a test compound (final concentration: 40 or 200 μM) or DMSO (control) at room temperature for 15 minutes, 2 mM PAPS (2.5 μl) was then added to initiate reaction, the resultant was reacted at 37° C. for 15 minutes, and 0.8 ml of ethanol was added to terminate the reaction.
The solution after the reaction was subjected to thin-layer chromatography (TLC) for separation, and then to a liquid scintillation counter to quantify radiolabeled CS.
From the percentage to the amount ([…]) of radiolabeled CS generated through reaction in the absence of the test compound (DMSO) (control), the SULT2B1b activity (% activity) of SULT2B1b protein in the presence of the test compound was evaluated, and the effect of the test compound to inhibit SULT2B1b-mediated CS production (CS production inhibitory effect) was evaluated.
In enzyme assay, SULT assay was performed with use of cholenoic acid as a compound to be tested at different cholesterol and PAPS concentrations (wherein 0.5 to 1 μg of recombinant human SULT2B1b protein was used, the preincubation time and reaction time were each 10 minutes), and the results were fitted to the Michaelis-Menten equation by using Prism 9 (GraphPad Software, Inc.) to perform enzyme kinetic analysis for the inhibition by cholenoic acid.
SULT assay was performed for the compounds as test compounds by the method described in (14) of “II. Experimental procedure” in Experiment Example 1 to evaluate the SULT2B1b inhibitory effects of the compounds.

The next experiment concerns E0771-SULT cells. The experiment is described as follows: Oral cholenoic acid in mice with transplanted E0771-SULT cells: CS production and CD8+ T cell infiltration in tumor. The format is in vivo, mouse.
In another experiment the test system is E0771-SULT-PD-L1 cells. The experiment is described as follows: In vivo tumor growth of E0771-SULT-PD-L1 cells with anti-PD-L1 antibody treatment. Set-up: species or system mouse. The settings on record: oral cholenoic acid combined with anti-PD-L1 antibody, days 9, 12 and 15 after transplantation. The protocol:
As described later for each experiment, 200 μl of an anti-mouse PD-L1 antibody (10F.9G2, 0.5 mg/ml, BioXCell) or a control of the matched isotype (LTF-2, 0.5 mg/ml, BioXCell) was intraperitoneally injected into tumor-bearing mice (see experimental results (3)).
Cholenoic acid was suspended in 0.5% (w/v) methylcellulose 400 solution (FUJIFILM Wako Pure Chemical Corporation) at a proportion of 50 mg/ml, and a 200-μl portion (10 mg) of the suspension was orally administered to mice (see experimental results (6)). To examine the effect on the tumor infiltration of OTII cells or OTI T cells, 5 mg of cholenoic acid was orally administered three times at intervals of 6 hours in 2 days before the assay. […]
as §1

Entries after “also recorded” stand apart in the source; their conditions may differ.

Take `C[C@H](CCC(=O)O)[C@H]1CC[C@H]2[C@@H]3CC=C4C[C@@H](O)CC[C@]4(C)[C@H]3CC[C@]12C` [Compound 1, (R)-4-((3S,8S,9S,10R,13R,14S,17R)-3-hydroxy-10,13-dimethyl-2,3,4,7,8,9,10,11,12,13,14,15,16,17-tetradecahydro-1H-cyclopenta[a]phenanthren-17-yl)pentanoic acid]: the “growth of E0771-SULT-OVA cells / anti-tumor immunity of OTII T cells” value in the experiment with E0771-SULT-OVA cells was “recovery of the effect of OTII cell or OTI T cell transplantation; also recorded: the growth of E0771-SULT-OVA cells was suppressed”. Also, the “inhibition mode with respect to PAPS (sulfate donor)” value in experiment [1] (Michaelis-Menten / Lineweaver-Burk, 10 μM cholesterol) was “uncompetitively”. Also, the “inhibition mode with respect to cholesterol (substrate)” value in experiment [1] (Michaelis-Menten / Lineweaver-Burk, 100 μM PAPS) is “non-competitively”. Also, the IC50 in experiment [1] (recombinant human SULT2B1b, read-out: IC50 value (enzyme assay)) came to 24.8 µM. Moreover, the activity at 200 µM in experiment [1] (test compound 200 μM, relative to DMSO control (100%), read-out: in vitro SULT2B1b assay % activity at 200 μM) was 20.6%. Further, the “CS production in tumor” value in the experiment with E0771-SULT cells (oral administration on days 5, 6 and 7, analysed day 8, listed as cholenoic acid) is reported as “local reduction in CS production; also recorded: locally inhibited”. The “CD8+ T cell infiltration in tumor” value in the experiment on E0771-SULT cells (oral administration on days 5, 6 and 7, low CS region on day 8) is on record as “CD8^+ T cell infiltration was induced”. Besides, the “growth of E0771-SULT-PD-L1 cells (tumor volume)” value with E0771-SULT-PD-L1 cells was “renders E0771-SULT-PD-L1 cells susceptible to immune checkpoint inhibition; also recorded: causes the growth of E0771-SULT-PD-L1 cells (tumor volume) to be suppressed”.

The IC50 is the point on the concentration scale where inhibition reaches its midpoint.

The values are drawn from US20250002526A1, “PHARMACEUTICAL COMPOSITION HAVING ANTI-CANCER IMMUNOSTIMULATING EFFECT AND/OR IMMUNE CHECKPOINT INHIBITION POTENTIATING EFFECT” (KYUSHU UNIVERSITY, NATIONAL UNIVERSITY CORPORATION, priority 2021, published 2025).
